How the values were obtained:
Format in all cases: biochemical
[1] = target: T1, Human Calpain 1/NS1 (Homo sapiens, UniProt P07384); experiment: Calpain inhibition continuous fluorescence (FRET) assay, Human Calpain 1/NS1; conditions: Column A; read-out: Human Calpain 1/NS1 IC50
T1 sequence (P07384 1-714): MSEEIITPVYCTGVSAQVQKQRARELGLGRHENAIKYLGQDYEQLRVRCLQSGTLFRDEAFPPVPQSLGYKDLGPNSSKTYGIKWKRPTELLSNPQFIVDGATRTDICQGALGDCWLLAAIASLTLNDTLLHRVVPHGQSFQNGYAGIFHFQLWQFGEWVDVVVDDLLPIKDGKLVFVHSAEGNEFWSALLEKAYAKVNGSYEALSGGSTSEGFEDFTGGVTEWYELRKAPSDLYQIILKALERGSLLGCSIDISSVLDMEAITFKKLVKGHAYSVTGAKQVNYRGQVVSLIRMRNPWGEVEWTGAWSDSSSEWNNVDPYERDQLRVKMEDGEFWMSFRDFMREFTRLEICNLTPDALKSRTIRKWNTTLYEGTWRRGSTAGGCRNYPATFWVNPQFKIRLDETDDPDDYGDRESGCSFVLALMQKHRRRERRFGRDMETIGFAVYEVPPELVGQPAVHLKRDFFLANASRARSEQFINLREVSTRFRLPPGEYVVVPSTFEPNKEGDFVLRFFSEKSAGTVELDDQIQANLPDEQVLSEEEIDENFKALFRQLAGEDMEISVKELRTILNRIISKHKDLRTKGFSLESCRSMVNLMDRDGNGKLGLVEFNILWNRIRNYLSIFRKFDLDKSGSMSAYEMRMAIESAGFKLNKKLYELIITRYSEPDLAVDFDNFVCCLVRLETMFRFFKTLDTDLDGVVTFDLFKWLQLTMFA
T1 sequence (P04632 1-268 partner): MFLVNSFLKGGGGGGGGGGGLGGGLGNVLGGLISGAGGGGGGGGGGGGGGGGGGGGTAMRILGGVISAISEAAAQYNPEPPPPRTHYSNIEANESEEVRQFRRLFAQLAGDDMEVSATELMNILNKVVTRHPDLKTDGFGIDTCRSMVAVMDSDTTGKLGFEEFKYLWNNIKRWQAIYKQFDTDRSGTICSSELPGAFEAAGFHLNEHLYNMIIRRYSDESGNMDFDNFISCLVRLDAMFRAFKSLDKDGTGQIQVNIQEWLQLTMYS
Procedure: (§1) Calpain 1, 2, and 9 activity and inhibition thereof was assessed by means of a continuous fluorescence assay. The SensoLyte 520 Calpain substrate (Anaspec Inc) was optimized for detecting calpain activity. This substrate contains an internally quenched 5-FAM/QXL™ 520 FRET pair. Calpains 1, 2, and 9 cleave the FRET substrate into two separate fragments resulting in an increase of 5-FAM fluorescence that is proportional to calpain activity
(§2) Assays were typically setup in black 384-well plates using automated liquid handling as follows. Calpain assay base buffer typically contains 50 mM Tris, pH 7.5, 100 mM NaCl and 1 mM DTT. Inhibitors were serially diluted in DMSO and used to setup 2× mixtures with calpains in the aforementioned buffer. After incubation at ambient temperature (25C), the reaction was initiated by adding a 2× mix of the fluorescent peptide substrate and CaCl2) (required for in-situ calpain activation) in the same buffer. Reaction progress curve data were typically collected for 10 min using excitation/emission wavelengths of 490 nm/520 nm on SpectraMax i3× or the FLIPR-Tetra plate readers (Molecular Devices Inc). Reaction rates were calculated from progress curve slopes typically over 1-5 min. Dose response curves (rate vs. log inhibitor concentration) were typically fit to a 4-parameter logistic function to extract IC50 values.

[2] = target: T2, Human Calpain 2/NS1 (Homo sapiens, UniProt P17655); experiment: Calpain inhibition continuous fluorescence (FRET) assay, Human Calpain 2/NS1; conditions: Column B; read-out: Human Calpain 2/NS1 IC50
T2 sequence (P17655 1-700): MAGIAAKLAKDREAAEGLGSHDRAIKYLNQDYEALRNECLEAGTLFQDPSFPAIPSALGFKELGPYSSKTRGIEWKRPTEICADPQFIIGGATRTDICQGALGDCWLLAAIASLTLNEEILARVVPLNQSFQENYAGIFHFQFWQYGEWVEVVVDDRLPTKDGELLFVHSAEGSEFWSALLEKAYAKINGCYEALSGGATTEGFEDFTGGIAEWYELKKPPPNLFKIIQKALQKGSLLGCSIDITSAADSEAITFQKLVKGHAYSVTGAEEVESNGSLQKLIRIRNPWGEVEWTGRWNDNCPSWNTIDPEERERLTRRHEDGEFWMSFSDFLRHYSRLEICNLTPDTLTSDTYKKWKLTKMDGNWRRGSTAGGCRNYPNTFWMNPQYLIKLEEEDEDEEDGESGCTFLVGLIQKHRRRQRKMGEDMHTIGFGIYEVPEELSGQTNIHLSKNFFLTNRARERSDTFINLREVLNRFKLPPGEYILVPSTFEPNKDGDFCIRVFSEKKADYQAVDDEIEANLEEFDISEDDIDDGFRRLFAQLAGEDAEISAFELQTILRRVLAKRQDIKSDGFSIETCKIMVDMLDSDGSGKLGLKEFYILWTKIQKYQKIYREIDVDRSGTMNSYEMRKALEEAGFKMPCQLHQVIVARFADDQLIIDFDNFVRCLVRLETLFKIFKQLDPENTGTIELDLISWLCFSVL
T2 sequence (P04632 1-268 partner): T1 sequence (P04632 1-268 partner)
Procedure: as §1, §2

[3] = target: T3, Human Calpain 9/NS1 (Homo sapiens, UniProt O14815); experiment: Calpain inhibition continuous fluorescence (FRET) assay, Human Calpain 9/NS1; conditions: Column C; read-out: Human Calpain 9/NS1 IC50
T3 sequence (O14815 1-690): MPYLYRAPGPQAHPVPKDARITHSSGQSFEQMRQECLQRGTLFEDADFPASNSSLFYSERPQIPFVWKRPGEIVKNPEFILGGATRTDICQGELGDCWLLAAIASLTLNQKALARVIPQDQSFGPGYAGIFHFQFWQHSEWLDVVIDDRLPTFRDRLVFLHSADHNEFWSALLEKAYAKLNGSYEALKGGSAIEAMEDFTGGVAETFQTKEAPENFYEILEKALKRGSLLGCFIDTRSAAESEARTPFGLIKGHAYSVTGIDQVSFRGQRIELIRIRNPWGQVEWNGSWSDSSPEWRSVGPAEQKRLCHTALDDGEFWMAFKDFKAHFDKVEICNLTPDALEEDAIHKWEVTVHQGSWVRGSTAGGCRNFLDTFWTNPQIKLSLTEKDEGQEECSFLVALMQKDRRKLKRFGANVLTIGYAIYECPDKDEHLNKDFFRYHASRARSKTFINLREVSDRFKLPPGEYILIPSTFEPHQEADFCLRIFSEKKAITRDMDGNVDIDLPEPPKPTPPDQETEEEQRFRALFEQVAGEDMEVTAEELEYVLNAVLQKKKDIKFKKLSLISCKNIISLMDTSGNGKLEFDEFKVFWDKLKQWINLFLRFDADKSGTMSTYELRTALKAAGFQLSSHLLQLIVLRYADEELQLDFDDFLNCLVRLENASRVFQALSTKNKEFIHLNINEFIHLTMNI
T3 sequence (P04632 1-268 partner): T1 sequence (P04632 1-268 partner)
Procedure: as §1, §2

SMILES	IC50 [1]	IC50 [2]	IC50 [3]
O=C(NC1CC1)C(=O)[C@H](Cc1ccccc1)NC(=O)c1scnc1-c1ccccn1 [Compound 61]	< 3 µM	< 3 µM	< 3 µM
CCCC[C@H](NC(=O)c1c(C)noc1-c1ccccc1)C(=O)C(N)=O [Compound 62, (S)—N-(1-amino-1,2-dioxoheptan-3-yl)-3-methyl-5-phenylisoxazole-4-carboxamide]	< 3 µM	< 3 µM	< 3 µM
Cc1cc(C(=O)N[C@@H](Cc2ccccc2)C(=O)C(N)=O)n(-c2ncccc2C)n1 [Compound 66, (S)—N-(4-amino-3,4-dioxo-1-phenylbutan-2-yl)-3-methyl-1-(3-methylpyridin-2-yl)-1H-pyrazole-5-carboxamide]	3 to 10 µM	< 3 µM	< 3 µM
NC(=O)C(=O)[C@H](Cc1ccccc1)NC(=O)c1cncn1-c1ccn(-c2ccccc2)n1 [Compound 68, (S)—N-(4-amino-3,4-dioxo-1-phenylbutan-2-yl)-1-(1-phenyl-1H-pyrazol-3-yl)-1H-imidazole-5-carboxamide]	< 3 µM	< 3 µM	< 3 µM
NC(=O)C(=O)[C@H](Cc1ccccc1)NC(=O)c1cncn1-c1nc2ccccc2[nH]1 [Compound 70, (S)—N-(4-amino-3,4-dioxo-1-phenylbutan-2-yl)-1-(1H-benzo[d]imidazol-2-yl)-1H-imidazole-5-carboxamide]	< 3 µM	< 3 µM	< 3 µM
O=C(NC1CC1)C(=O)[C@H](Cc1ccccc1)NC(=O)c1cncn1-c1nc2ccccc2[nH]1 [Compound 71, (S)-1-(1H-benzo[d]imidazol-2-yl)-N-(4-(cyclopropylamino)-3,4-dioxo-1-phenylbutan-2-yl)-1H-imidazole-5-carboxamide]	3 to 10 µM	3 to 10 µM	> 10 µM
CC[C@@H](C)[C@H](NC(=O)c1c(C)noc1-c1ccccc1)C(=O)C(N)=O [Compound 73, N-((3S,4R)-1-amino-4-methyl-1,2-dioxohexan-3-yl)-3-methyl-5-phenylisoxazole-4-carboxamide]	< 3 µM	< 3 µM	> 10 µM
NC(=O)C(=O)[C@H](Cc1ccccc1)NC(=O)c1cncn1-c1ncc(-c2ccccc2)cn1 [Compound 74, (S)—N-(4-amino-3,4-dioxo-1-phenylbutan-2-yl)-1-(5-phenylpyrimidin-2-yl)-1H-imidazole-5-carboxamide]	< 3 µM	< 3 µM	< 3 µM
O=C(NC1CC1)C(=O)[C@H](Cc1ccccc1)NC(=O)c1cncn1-c1ncc(-c2ccccc2)cn1 [Compound 76, (S)—N-(4-(cyclopropylamino)-3,4-dioxo-1-phenylbutan-2-yl)-1-(5-phenylpyrimidin-2-yl)-1H-imidazole-5-carboxamide]	< 3 µM	< 3 µM	3 to 10 µM
Cc1nc(C(=O)N[C@@H](Cc2ccccc2)C(=O)C(N)=O)c(-c2ccccc2)[nH]1 [Compound 79, (S)—N-(4-amino-3,4-dioxo-1-phenylbutan-2-yl)-2-methyl-5-phenyl-1H-imidazole-4-carboxamide]	< 3 µM	< 3 µM	< 3 µM

Next, values leading:

IC50 [1]	IC50 [2]	IC50 [3]	SMILES
< 3 µM	< 3 µM	< 3 µM	O=C(NC1CC1)C(=O)[C@H](Cc1ccccc1)NC(=O)c1scnc1-n1cc2ccccc2n1 [Compound 64, (S)—N-(4-(cyclopropylamino)-3,4-dioxo-1-phenylbutan-2-yl)-4-(2H-indazol-2-yl)thiazole-5-carboxamide]
> 10 µM	> 10 µM	> 10 µM	Cc1cc(C(=O)N[C@@H](Cc2ccccc2)C(=O)C(=O)NC2CC2)n(-c2ncccn2)n1 [Compound 65, (S)—N-(4-(cyclopropylamino)-3,4-dioxo-1-phenylbutan-2-yl)-3-methyl-1-(pyrimidin-2-yl)-1H-pyrazole-5-carboxamide]
> 10 µM	> 10 µM	> 10 µM	Cc1cc(C(=O)N[C@@H](Cc2ccccc2)C(=O)C(=O)NC2CC2)n(-c2ncccc2C)n1 [Compound 67, (S)—N-(4-(cyclopropylamino)-3,4-dioxo-1-phenylbutan-2-yl)-3-methyl-1-(3-methylpyridin-2-yl)-1H-pyrazole-5-carboxamide]
< 3 µM	< 3 µM	< 3 µM	NC(=O)C(=O)[C@H](Cc1ccccc1)NC(=O)c1cncn1-c1n[nH]c2ccccc12 [Compound 69, (S)—N-(4-amino-3,4-dioxo-1-phenylbutan-2-yl)-1-(1H-indazol-3-yl)-1H-imidazole-5-carboxamide]
< 3 µM	< 3 µM	3 to 10 µM	O=C[C@H](Cc1ccccc1)NC(=O)c1cncn1-c1ncc(-c2ccccc2)cn1 [Compound 75]
< 3 µM	3 to 10 µM	> 10 µM	O=C(NC1CC1)C(=O)[C@H](Cc1ccccc1)NC(=O)c1cncn1-c1cc(-c2ncco2)ccn1 [Compound 77, (S)—N-(4-(cyclopropylamino)-3,4-dioxo-1-phenylbutan-2-yl)-1-(4-(oxazol-2-yl)pyridin-2-yl)-1H-imidazole-5-carboxamide]
> 10 µM	3 to 10 µM	< 3 µM	Cc1cc(C(=O)N[C@@H](Cc2ccccc2)C(=O)C(=O)NC2CC2)n(-c2cccc3ncccc23)n1 [Compound 78, (S)—N-(4-(cyclopropylamino)-3,4-dioxo-1-phenylbutan-2-yl)-3-methyl-1-(quinolin-5-yl)-1H-pyrazole-5-carboxamide]

— patent publication US11339130B1 (Blade Therapeutics, Inc., priority 2016, dated 2022)
